This data set is described as follows: gradient 5% acetonitrile 3 min, to 50% in 2 min, to 85% in 15 min, held 3 min, 100 µL/min. To be noted: column: Zorbax Extend-C18 2.1 x 50 mm; eluents: water / acetonitrile, 0.1% formic acid. The gist of the method:
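The system's dead and dwell volumes were 40 μL and 900 μL, with a Zorbax Extend-C18 column (2.1 × 50 mm, 1.8 μm) run at 100 μL/min in water and acetonitrile containing 0.1% formic acid each. Pure standards were analyzed in mixtures of ~100 molecules by HPLC–quadrupole time-of-flight mass spectrometry in positive and negative ionization mode. Retention time was assigned from computationally picked, manually inspected adduct peaks.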
The molecule `CC(=O)N1CCCc2cc(S(=O)(=O)CCC(=O)N3CCN(c4cccc(C)c4)C(C)C3)ccc21` (centres undefined) came in with an RP-LC retention time of 750 s.

Consider `COc1ccc(-c2nc(C3CC(=O)N(c4ccccc4)C3)no2)cc1` (centres undefined), for which the RP-LC retention time was found to be 971 s.

Regarding `Cc1ccc(CNC(=O)N2CCC3(CC2)NC(=O)c2ccc(F)cc2N3C)cc1`, the RP-LC retention time was 761 s.

Molecule `COc1ccccc1N1CCN(c2cc(SCC(=O)NC(C)CCc3ccccc3)ncn2)CC1` (centres undefined) had an RP-LC retention time of 1020 s.

For `CCSc1nnc(NC(=O)CSc2nnc(-c3ccco3)o2)s1`, the RP-LC retention time was found to be 726 s.

Consider `COc1ccc(CCc2nc(Cn3c(C)nc4ccccc4c3=O)no2)cc1`, for which the RP-LC retention time is 858 s.

`O=c1c2cc(-c3ccc(F)cc3)nn2cnn1Cc1nc(-c2ccc3c(c2)OCO3)no1`: the RP-LC retention time was 1220 s.

Molecule `COCCNC(=O)CC1CCN(C(=O)c2ccc3oc(C4CC4)nc3c2)CC1` had an RP-LC retention time of 601 s.

Regarding `Cc1ccc(NC(=O)Cn2nc3nc(N4CCOCC4)ccn3c2=O)cc1F`, the RP-LC retention time came out at 675 s.

As for `Cc1ccc(Nc2c(-c3ccccc3O)nc3ncccn23)c(C)c1`, the RP-LC retention time turned out to be 744 s.

As for `O=C(Nc1ccc(C(=O)N2CCOCC2)c(N2CCCCCC2)c1)C1CC1`, the RP-LC retention time came to 743 s.

In the case of `CCn1ccc(NC(=O)NC2CCCC2)n1`, the RP-LC retention time worked out at 730 s.

Consider `Cc1ccc(N2C(=O)CC(N3CCC(C(N)=O)CC3)C2=O)c(Cl)c1` (centres undefined), for which the RP-LC retention time stood at 614 s.

`Cc1c(C(=O)NCCN2CCCCCC2)sc2ncnc(N3CCN(C)CC3)c12` gave an RP-LC retention time of 551 s.

For the molecule `Cc1ccccc1OCC(=O)N1CCN(C2=CC3=NCC(C)N3C=N2)CC1` (centres undefined), the RP-LC retention time came out at 644 s.

Take `Cc1ccc(-c2nc(C3CC(=O)N(c4ccc(F)c(Cl)c4)C3)no2)c(C)c1` (centres undefined): the RP-LC retention time is 1250 s.

In turn, `O=S(=O)(c1ccccc1Br)N1CCCC1c1nc(-c2ccc(F)cc2)no1` (centres undefined) gave an RP-LC retention time of 1110 s.

The molecule `O=S(=O)(Nc1ccc(F)cc1F)c1ccc(-c2nnc(C3CCC3)o2)o1` had an RP-LC retention time of 879 s.

As for `O=c1[nH]c2ccc(NCc3ccc(-c4ccccc4)cc3)cc2[nH]1`, the RP-LC retention time is 674 s.

The molecule `CCN1C(=O)COc2ccc(-c3nc(NC(=O)c4cccc(C)c4)sc3C)cc21` gave an RP-LC retention time of 682 s.

`Cn1cnc2ccc(-c3noc(-c4cccc(NC(=O)c5ccco5)c4)n3)cc21` gave an RP-LC retention time of 682 s.

Regarding `COc1ccc(S(=O)(=O)N2CCc3c(c(-c4nnc(-c5ccccc5)o4)nn3C)C2)cc1Cl`, the RP-LC retention time is 990 s.

`CCCNC(=O)N1CCN(Cc2nc3cccnc3n2-c2cc(C)cc(C)c2)CC1` showed an RP-LC retention time of 656 s.

`Cc1ccc(-c2nc3n(CC(=O)N4CCCC4)c4c(c(=O)n3n2)CCC4)cc1`: the RP-LC retention time stood at 752 s.

Molecule `COc1ccc(NC(=O)CCc2c(C)nn(-c3cc(N(C)C)ncn3)c2C)cc1Cl` showed an RP-LC retention time of 822 s.

With `CCCN1CCN(Cc2nc3nc(C)cc(N4CCCCCC4)n3n2)CC1`, the RP-LC retention time was 587 s.

Molecule `CCC(C)NC(=O)c1ccc2c(c1)CC(=O)N2CC` (centres undefined) registered an RP-LC retention time of 691 s.

With `CCCN1C(=O)COc2ccc(-c3noc(/C=C/c4ccccc4OC)n3)cc21`, the RP-LC retention time is 1270 s.

In the case of `COCCN1C(=O)c2ccccc2C(C(=O)NCc2ccc(F)cc2)C12CCCC2` (centres undefined), the RP-LC retention time was 879 s.

Regarding `O=C([C@@H]1C[C@H](Oc2cccnc2)CN1C(=O)CC1CCCC1)N1CCCC1`, the RP-LC retention time is 600 s.

`O=C(Nc1ccc(Cl)c(Cl)c1)N1CC(c2nc(-c3cnccn3)no2)C1` yielded an RP-LC retention time of 746 s.

`COc1ccc(-c2n[nH]c3c2C(c2ccc(O)c(OC)c2)NC3=O)cc1` (centres undefined) gave an RP-LC retention time of 639 s.

The molecule `CCOc1cc(-c2noc(-c3nnn4c3COC(c3ccc(F)cc3)C4)n2)ccc1OC` (centres undefined) registered an RP-LC retention time of 1130 s.

Turning to `Cc1cc(C)cc(NC(=O)C2CCN(S(=O)(=O)c3cc(C(=O)N4CCOCC4)cs3)CC2)c1`, the RP-LC retention time turned out to be 760 s.

As for `CCCc1noc(-c2ccc3nnc(CC(=O)Nc4ccc(C)cc4C)n3c2)n1`, the RP-LC retention time was found to be 926 s.

Regarding `CC(=O)O[C@@H]1CC[C@@]2(C)[C@H](C1)[C@H](OC(C)=O)C[C@@H]1[C@@H]2C[C@H]2[C@@H]3CN4C[C@H](C)CC[C@H]4[C@H](C)[C@H]3CC[C@@]12O`, the RP-LC retention time came out at 716 s.

In turn, `Cc1cccc(-c2nc3ccccn3c2NC(=O)NCc2ccc(F)cc2)c1` gave an RP-LC retention time of 714 s.

In turn, `CCn1cc(C(=O)Nc2ccc(C)c(F)c2)c(S(=O)(=O)N2CCSCC2)n1` yielded an RP-LC retention time of 901 s.

`Nc1cc(S(=O)(=O)N2CCCCCC2)ccc1Cl` came in with an RP-LC retention time of 902 s.

Molecule `CCOc1ccc(CNC(=O)C2CCCN(c3cc(=O)n(C)c(=O)n3C)C2)cc1` (centres undefined) gave an RP-LC retention time of 709 s.

In the case of `O=C(C1CCN(c2nnc3ccccn23)CC1)N1CCN(c2ccccn2)CC1`, the RP-LC retention time was determined as 543 s.

`Cc1nc(Nc2ccccn2)sc1C(=O)N1CCN(c2ccccc2F)CC1` gave an RP-LC retention time of 841 s.

In turn, `Cc1nc(C(=O)Nc2cc(F)ccc2F)c(C)o1` displayed an RP-LC retention time of 998 s.

As for `O=C(Nc1nc(-c2ccc(F)cc2F)cs1)c1ccccc1F`, the RP-LC retention time came to 1130 s.

`O=C(Nc1ccc(SCc2nnc(-c3ccc4c(c3)OCO4)o2)cc1)C1CCCCC1` registered an RP-LC retention time of 1020 s.

For `Cc1nc(N2CCN(c3ncccn3)CC2)nc2c1C(=O)CC(c1ccc(F)cc1)C2` (centres undefined), the RP-LC retention time was 1190 s.

As to `COc1cccc(CNC(=O)N2CCCC2c2cc(C(C)C)on2)c1` (centres undefined), the RP-LC retention time came out at 832 s.

`O=C(NCc1ccc(Cl)cc1)C1CCN(C(=O)c2ncn3c2COC(c2ccccc2)C3)CC1` (centres undefined) registered an RP-LC retention time of 802 s.

Consider `CC1(C(=O)NCc2ccc(F)cc2)Cn2cnc(C(=O)Nc3cc(F)ccc3F)c2C(=O)N1C1CC1` (centres undefined), for which the RP-LC retention time came to 847 s.

Turning to `O=C(O)c1ccc2c(c1)N(S(=O)(=O)c1ccccc1F)CC2`, the RP-LC retention time is 789 s.

`CCN(c1ccccc1C)S(=O)(=O)c1cc(-c2[nH]ncc2C(=O)N2CCCC2)oc1C` had an RP-LC retention time of 819 s.

For `COc1cc(NC(C)=O)c2ncccc2c1Br`, the RP-LC retention time was determined as 960 s.

`CN(C)C(CNC(=O)C(=O)Nc1ccc(OC(F)(F)F)cc1)c1ccccc1Cl` (centres undefined) returned an RP-LC retention time of 622 s.

As to `Cc1sc2cc(C(=O)N3CCCC3)[nH]c2c1CN1CCCCC1`, the RP-LC retention time is 646 s.

`O=C(CCn1nnc2cc(-c3noc(C4(c5ccccc5)CC4)n3)ccc21)N1CCCC1`: the RP-LC retention time was 958 s.

`CC1CCC(C(=O)Nc2cccc(-c3nnc4n3CCCC4)c2)CC1` (centres undefined) displayed an RP-LC retention time of 756 s.

Molecule `CCc1nnc(C2CCN(C(=O)c3ccc(F)cc3F)CC2)s1` registered an RP-LC retention time of 770 s.

On to `CCOC(=O)Cc1ccc(NC(=O)NCc2c(C)nn(C)c2C)cc1`, for which the RP-LC retention time came out at 680 s.

Take `CN(C)CC1(O)CCC2(CCN(C(=O)c3ccsc3)CC2)CC1`: the RP-LC retention time amounted to 576 s.

The molecule `O=C(NC1CCCCCC1)c1cccnc1N1CCNC(c2ccccc2)C1` (centres undefined) showed an RP-LC retention time of 656 s.

`CCOc1ccc(NC(=O)Cn2cnc3nc(N4CCCC(C(=O)NC5CC5)C4)sc3c2=O)cc1` (centres undefined) yielded an RP-LC retention time of 675 s.

`CN(CCCNC(=O)c1ccc2c(c1)NC(=O)C1CCCCN21)C1CCCCC1` (centres undefined) returned an RP-LC retention time of 623 s.

`Cc1noc(COC2CCN(C(=O)NCCc3ccccc3)CC2)n1` displayed an RP-LC retention time of 694 s.

The molecule `COc1ccc(F)c(F)c1C(=O)c1cnc(NC2CCN(S(C)(=O)=O)CC2)nc1N` displayed an RP-LC retention time of 784 s.

Take `Cc1cc(NC(=O)C2CC2)nn1Cc1ccccc1`: the RP-LC retention time worked out at 746 s.

With `COc1ccc(NC(=O)N2CC(N(C3CCOCC3)S(C)(=O)=O)C2)c(C)c1`, the RP-LC retention time was 664 s.

Take `O=C(Cc1csc(NC(=O)c2ccsc2)n1)NCCOc1ccc(F)cc1`: the RP-LC retention time is 747 s.

As for `CC(C)(C)OC(=O)NC1[C@H]2CNC[C@@H]12` (some centres undefined), the RP-LC retention time was determined as 609 s.

In the case of `COc1ccc(C(=O)NCc2ccc3c(c2)ncn3C(C)C)cn1`, the RP-LC retention time stood at 597 s.

`COc1cccc(-c2nc(C3CCN(S(=O)(=O)c4cccc(C)c4)CC3)no2)c1` displayed an RP-LC retention time of 1150 s.

Turning to `CCn1ccc2cc(S(=O)(=O)N3CCC(C(=O)NCC4CCCO4)CC3)ccc21` (centres undefined), the RP-LC retention time turned out to be 771 s.

On to `CC(C)NC(=O)Cn1cccc(-c2nc(-c3ccc(Br)cc3)no2)c1=O`, for which the RP-LC retention time turned out to be 824 s.

The molecule `Cc1nnc2cc(N3CCN(S(=O)(=O)c4ccc(CC(C)C)cc4)CC3)cnn12` had an RP-LC retention time of 695 s.

`CCn1cnc2ccc(-c3noc(COc4ccc(Cl)cc4)n3)cc21` displayed an RP-LC retention time of 815 s.

As for `CC(C)(C)c1ccc(S(=O)(=O)N2CCCCC2C(=O)N2CCN(c3ccc(F)cc3)CC2)cc1` (centres undefined), the RP-LC retention time came to 1230 s.

Turning to `Cc1ccc(S(=O)(=O)N2CCc3nc(-c4ccc(F)cc4)ncc3C2)c(C)c1`, the RP-LC retention time amounted to 1220 s.

Molecule `O=C(Nc1ccc(Cl)cc1)C(=O)c1c[nH]c2ccccc12` showed an RP-LC retention time of 1030 s.

In the case of `CCCc1noc(-c2cccnc2N2CCCN(Cc3ccc(F)cc3)CC2)n1`, the RP-LC retention time amounted to 729 s.

`CN1c2ccccc2C(=O)NC12CCN(C(=O)c1ccccc1F)CC2` registered an RP-LC retention time of 712 s.

Source of the values: the METLIN SMRT retention time set (Domingo-Almenara et al. 2019).
